Results as given in patent US20060128737A1, “Androgen receptor agonists” (KAKEN PHARMACEUTICAL CO., LTD., priority 2003, published 2006).

Tests used:
[1] = molecular target: T1, rat androgen receptors (rat AR) (Rattus norvegicus, UniProt P15207); assay: Test for competitive binding to rat androgen receptors (rat AR); details: RBA=100×(IC50 of hydroxyflutamide)/(IC50 of compound); 3H-testosterone, rat prostate AR fraction
T1 construct: from tissue; host or cells: prostate of orchiectomized 11-week-old male SD rats (cytosolic supernatant of homogenate)
T1 sequence (P15207 1-902): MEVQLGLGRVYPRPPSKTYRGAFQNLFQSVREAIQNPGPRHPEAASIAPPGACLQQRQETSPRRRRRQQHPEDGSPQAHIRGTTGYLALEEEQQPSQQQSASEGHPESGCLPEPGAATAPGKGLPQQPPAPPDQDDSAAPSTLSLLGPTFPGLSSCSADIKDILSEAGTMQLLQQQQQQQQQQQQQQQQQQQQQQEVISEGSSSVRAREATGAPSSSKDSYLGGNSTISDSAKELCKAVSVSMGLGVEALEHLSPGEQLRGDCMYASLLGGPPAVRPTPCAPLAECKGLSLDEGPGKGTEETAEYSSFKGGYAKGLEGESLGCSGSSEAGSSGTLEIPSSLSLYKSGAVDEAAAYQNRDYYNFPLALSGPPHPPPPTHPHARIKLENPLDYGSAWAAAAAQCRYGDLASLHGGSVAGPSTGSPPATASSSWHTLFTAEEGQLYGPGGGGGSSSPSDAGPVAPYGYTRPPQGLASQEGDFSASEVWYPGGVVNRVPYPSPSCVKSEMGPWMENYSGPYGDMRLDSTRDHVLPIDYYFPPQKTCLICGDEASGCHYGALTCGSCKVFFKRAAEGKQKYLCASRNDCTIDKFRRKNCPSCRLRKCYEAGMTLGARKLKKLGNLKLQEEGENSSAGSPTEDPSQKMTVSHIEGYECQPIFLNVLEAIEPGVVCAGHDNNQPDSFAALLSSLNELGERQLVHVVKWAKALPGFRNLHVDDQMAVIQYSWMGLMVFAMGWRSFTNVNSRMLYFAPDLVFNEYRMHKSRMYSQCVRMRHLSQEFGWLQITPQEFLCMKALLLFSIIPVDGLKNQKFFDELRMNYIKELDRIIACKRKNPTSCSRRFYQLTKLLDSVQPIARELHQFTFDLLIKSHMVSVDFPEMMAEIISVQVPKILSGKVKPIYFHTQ
Method: Preparation of a rat AR fraction: Prostates were harvested into ice-cooled ET buffer (10 mM Tris, 1 mM EDTA, 5 mM DTT, 10 mM sodium molybdate, pH 7.4) 3 days after orchiectomy in 11-week-old male SD rats. The prostate was finely cut, and ET buffer was added, whereafter the mixture was homogenized using a homogenizer. The homogenate was ultracentrifuged (100,000×g, 60 min, 4° C.), and the supernatant was used as a rat AR fraction (hereinafter referred to as ARF).
Binding test: ^3H-testosterone (hereinafter referred to as ^3H-T) was diluted with ET buffer. Dihydrotestosterone (DHT) was prepared so as to have a final concentration of 1 μM which was 400 times the maximum concentration of ^3H-T (2.5 nM). The ^3H-T solution was added to a 1.5 ml tube containing DHT, no DHT, or various concentrations of a test compound. Further, 200 μg ARF was added to adjust the final volume to 100 μl. The mixture was incubated for 2 hours at 4° C., and then 300 μl of a 0.05% dextran T70-1.0% activated carbon solution was added. The mixture was further incubated for 15 minutes in ice to remove the free ^3H-T by adsorption. After centrifugation (4° C., 2,500 rpm, 5 min), 275 μl of the supernatant was harvested into a liquid scintillation vial, and 2 ml of Clear Sol was added. The mixture was stirred, allowed to stand, and measured for ^3H radioactivity with a liquid scintillation counter.
Calculation of the relative binding inhibition rate: The binding inhibition rate (%) of the compound according to the present invention was calculated from the following equation, and the 50% inhibition concentration (IC50) was calculated by the probit analysis of the concentration-binding inhibition curve.
The relative binding inhibition rate (RBA: Relative Binding Affinity) was determined from the following equation (Endocrinology 138, 863-870, 1997): RBA=100×(IC50 of hydroxyflutamide)/(IC50 of a compound of the present invention)

[2] = system: orchiectomized (ORX) rats; assay: Test Example 3: effect on prostate, levator ani muscle and femoral bone mineral density in ORX rats (subcutaneous); assay type: in vivo, rat
Method: (§1) Testes were removed from 12-week-old male SD rats. Starting on the next day, the compound of Example 12 or 65 (30 mg/kg) or DHT (0.1, 1, 10 mg/kg) was subcutaneously administered once daily for four consecutive weeks on a 5-day-a-week basis. The Example compounds and DHT were dissolved in dimethyl sulfoxide and diluted 10-fold with olive oil to prepare solutions with various concentrations for use in the test. In an ORX control group, dimethyl sulfoxide as diluted 10-fold with olive oil was used for the test. Rats which had been falsely operated on without orchiectomy were used as a sham control group. On the next day after final administration, the wet weights of the ventral prostate and levator ani muscle were measured and the right femoral bone mineral density was measured by DEXA (double energy X-ray absorption) to evaluate the in vivo efficacy of the compounds of Example 12 and 65.

[3] = system: orchiectomized (ORX) rats; assay: Test Example 4: effect on prostate, levator ani muscle and femoral bone mineral density in ORX rats (subcutaneous); assay type: in vivo, rat; details: for Prostate weight as % of the level of the sham control group: 30 mg/kg sc; for Femoral bone mineral density / Weight of levator ani muscle / Weight of prostate: 30 mg/kg sc once daily, 5 days a week, 4 weeks
Method: as §1, with “Example 113” for “Example 12”, “or 114” for “or 65”, “DHT (10” for “DHT (0.1, 1, 10”, “test. […]” for “test. Rats which had been falsely operated on without orchiectomy were used as a sham control group.”, “and 114.” for “and 65.”

[4] = 30 mg/kg sc once daily, 5 days a week, 4 weeks

SMILES | RBA (Relative Binding Affinity) [1] | Prostate weight as % of the level of the sham control group ([2]; 30 mg/kg sc) | Femoral bone mineral density [2, 4] [mg/cm^2] | Weight of levator ani muscle [2, 4] [mg/100 g body weight] | Weight of prostate [2, 4] [mg/100 g body weight] | Prostate weight as % of the level of the sham control group [3] | Femoral bone mineral density [3] [mg/cm^2] | Weight of levator ani muscle [3] [mg/100 g body weight] | Weight of prostate [3] [mg/100 g body weight]
CC(C)(CNC(=O)c1ccc(Br)cc1)[C@H]1Nc2ccc([N+](=O)[O-])cc2C2OCC[C@H]21 (relative stereo) [Example 12, (3aS*,4S*,9bS*)-4-bromo-N-[2-methyl-2-(8-nitro-2,3,3a,4,5,9b-hexahydro-furo[3,2-c]quinolin-4-yl)propyl]benzamide] | 94 | about 35% | 122 ± 5 | 54 ± 5 | 36 ± 6 |  |  |  | 
CC(C)(CNC(=O)c1ccc(OC(F)(F)F)cc1)[C@H]1Nc2ccc(C#N)cc2[C@H]2OCC[C@H]21 (relative stereo) [Example 113, (3aS*,4S*,9bS*)-N-[2-(8-cyano-2,3,3a,4,5,9b-hexahydro-furo[3,2-c]quinolin-4-yl)-2-methyl-propyl]-4-trifluoromethoxybenzamide] | 58 |  |  |  |  | about 40% | 148 ± 3 | 65 ± 6 | 59 ± 16
CCOc1ccc(C(=O)NCC(C)(C)[C@H]2Nc3ccc(C#N)cc3[C@H]3OCC[C@H]32)cc1 (relative stereo) [Example 114, (3aS*,4S*,9bS*)-N-[2-(8-cyano-2,3,3a,4,5,9b-hexahydro-furo[3,2-c]quinolin-4-yl)-2-methyl-propyl]-4-ethoxybenzamide] | 55 |  |  |  |  | about 60% | 150 ± 8 | 66 ± 11 | 86 ± 17
CCOc1ccc(C(=O)NCC(C)(C)[C@H]2Nc3ccc([N+](=O)[O-])cc3C3OCC[C@H]32)cc1 (some centres unmarked) [Example 20] | 161 |  |  |  |  |  |  |  | 
CC(C)(O)C(=O)Nc1ccc([N+](=O)[O-])c(C(F)(F)F)c1 [Hydroxyflutamide, hydroxyflutamide, reference compound] | 100 |  |  |  |  |  |  |  | 
